Source: patent EP1935986B1, “Luminogenic and fluorogenic compounds and methods to detect molecules or conditions” (priority 2005, dated 2006)

Tests used:
CYP1A2 = target: T1, CYP1A2 (Homo sapiens, UniProt P05177); experiment: Two-step luminescent P450 screen of luciferin derivatives; type: biochemical; details: 50 µM substrate, 1 pmole P450; result in words
T1 construct: purchased Discovery Labware (BD/Gentest); host or cells: insect cell expression system (membrane fractions)
T1 sequence (P05177 2-516 limits assumed): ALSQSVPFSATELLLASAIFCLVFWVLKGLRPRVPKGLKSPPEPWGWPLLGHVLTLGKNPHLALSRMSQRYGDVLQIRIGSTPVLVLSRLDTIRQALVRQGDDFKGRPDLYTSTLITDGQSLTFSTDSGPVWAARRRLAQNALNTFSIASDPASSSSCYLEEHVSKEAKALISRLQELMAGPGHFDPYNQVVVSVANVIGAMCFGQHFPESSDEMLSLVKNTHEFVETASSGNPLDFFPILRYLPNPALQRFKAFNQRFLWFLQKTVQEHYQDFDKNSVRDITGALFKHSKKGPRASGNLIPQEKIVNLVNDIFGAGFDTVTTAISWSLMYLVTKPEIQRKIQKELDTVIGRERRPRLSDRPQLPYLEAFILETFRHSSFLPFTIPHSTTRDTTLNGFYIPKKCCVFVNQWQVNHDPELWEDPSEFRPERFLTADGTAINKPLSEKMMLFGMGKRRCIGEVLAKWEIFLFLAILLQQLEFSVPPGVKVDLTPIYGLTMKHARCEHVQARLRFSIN
Method: P450s are Supersomes™ purchased from Discovery Labware (BD/Gentest). […] HLM is human liver microsomes.
1X substrate concentration: 50 µM.

CYP1A1 = target: T2, CYP1A1 (Homo sapiens, UniProt P04798); experiment: as above; details: 50 µM substrate, 1 pmole P450, 37°C 30 minutes; result in words
T2 sequence (P04798 1-512): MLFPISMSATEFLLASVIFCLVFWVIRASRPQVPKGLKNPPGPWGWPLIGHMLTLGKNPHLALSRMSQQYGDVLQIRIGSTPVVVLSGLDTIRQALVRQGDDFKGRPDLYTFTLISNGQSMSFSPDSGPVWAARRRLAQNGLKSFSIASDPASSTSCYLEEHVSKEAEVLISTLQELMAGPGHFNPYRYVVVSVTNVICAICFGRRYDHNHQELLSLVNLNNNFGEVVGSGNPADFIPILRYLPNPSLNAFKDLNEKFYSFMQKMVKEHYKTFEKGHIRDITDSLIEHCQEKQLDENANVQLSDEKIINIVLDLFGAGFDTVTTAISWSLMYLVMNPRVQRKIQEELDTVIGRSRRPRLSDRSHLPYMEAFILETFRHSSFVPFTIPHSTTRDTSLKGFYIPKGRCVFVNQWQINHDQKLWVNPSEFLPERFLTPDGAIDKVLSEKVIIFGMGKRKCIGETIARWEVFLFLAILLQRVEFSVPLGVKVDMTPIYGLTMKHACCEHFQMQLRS

P450 activity / selectivity with the derivative as substrate (CYP1A2) | P450 activity / selectivity with the derivative as substrate (CYP1A1) | Compound
preferred substrate |  | COc1ccc2nc(C3=N[C@@H](C(=O)O)CS3)ccc2c1 [Quinolylluciferin 6-methyl ether, 2-(6-methoxyquinolin-2-yl)-4,5-dihydrothiazole-4-carboxylate]
good selectivity |  | COc1ccc2nc(C3=N[C@@H](C(=O)NN)CS3)sc2c1 [luciferin-6-methylether hydrazide, Hydrazide of luciferin methyl ether]

Second part, the compound before the results:

Compound | P450 activity / selectivity with the derivative as substrate (CYP1A2) | P450 activity / selectivity with the derivative as substrate (CYP1A1)
Bis-luciferin-methylenediether |  | selective
N-benzyloxycarbonyl aminoluciferin |  | strong selectivity
N-isobutoxycarbonyl-aminoluciferin [N-isobutoxycarbonyl aminolucifern] |  | strong selectivity
